Key:
ec302 (TEM-10) [1] = test: Tigemonam potentiation (MPC@4), ec302; assay type: cell-based
SHV-12 = SHV-12 (Klebsiella pneumoniae, UniProt P0AD64, E235K/G234S/L31Q); test: Ki, nitrocefin cleavage by purified enzyme, SHV-12; assay type: biochemical; details: nitrocefin reporter substrate; read-out: Ki (SHV-12, NCF)
In short: (§1)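 Readout: nitrocefin hydrolysis, A490 recorded every 10 sec over 10 min. Enzyme and inhibitor (varied concentrations) preincubated 10 min, RT, in reaction buffer before substrate addition.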

KP1005 (CTX-M-14) [2] = test: Tigemonam potentiation (MPC@4), KP1005; assay type: cell-based; details: BLI with tigemonam at 4 μg/mL
P99 = P99 (Enterobacter cloacae, UniProt P05364); test: Ki, nitrocefin cleavage by purified enzyme, P99; assay type: biochemical; details: nitrocefin reporter substrate; read-out: Ki (P99, NCF)
Chain of P99 (P05364 21-381): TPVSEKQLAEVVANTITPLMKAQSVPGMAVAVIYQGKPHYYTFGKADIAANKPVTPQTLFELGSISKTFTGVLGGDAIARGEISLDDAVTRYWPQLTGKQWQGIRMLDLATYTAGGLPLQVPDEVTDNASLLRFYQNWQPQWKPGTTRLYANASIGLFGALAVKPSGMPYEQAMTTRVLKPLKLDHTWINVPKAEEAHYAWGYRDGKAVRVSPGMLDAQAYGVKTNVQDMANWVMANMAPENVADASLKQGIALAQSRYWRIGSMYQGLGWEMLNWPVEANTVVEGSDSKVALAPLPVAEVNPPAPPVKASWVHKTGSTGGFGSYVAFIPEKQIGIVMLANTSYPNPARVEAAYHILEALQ
In short: as §1

ECL1002 [3] = test: Aztreonam potentiation (MPC@4), ECL1002; assay type: cell-based; details: BLI with aztreonam at 4 μg/mL
EC1010 (CMY-6) [4] = test: Tigemonam potentiation (MPC@4), EC1010; assay type: cell-based; details: BLI with tigemonam at 4 μg/mL
KP1086 (OXA-48) = test: Biapenem potentiation (MPC@1), KP1086; details: BLI with biapenem at 1 μg/mL
CTX-M-14 = CTX-M-14 (Escherichia coli, UniProt Q9L5C7); test: Ki, nitrocefin cleavage by purified enzyme, CTX-M-14; assay type: biochemical; details: nitrocefin reporter substrate; read-out: Ki (CTX-M-14, NCF)
Chain of CTX-M-14 (Q9L5C7 29-291): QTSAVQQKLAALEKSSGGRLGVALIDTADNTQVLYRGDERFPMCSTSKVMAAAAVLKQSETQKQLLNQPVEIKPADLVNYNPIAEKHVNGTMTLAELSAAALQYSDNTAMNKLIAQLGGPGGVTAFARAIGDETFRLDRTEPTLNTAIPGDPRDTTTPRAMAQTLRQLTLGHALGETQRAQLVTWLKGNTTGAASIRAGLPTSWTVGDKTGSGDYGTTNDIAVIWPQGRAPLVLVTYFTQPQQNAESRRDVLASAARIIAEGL
In short: as §1

EC1010 (CMY-6) [5] = test: organism not typed; assay type: cell-based
ec308 (SHV-5) = test: Tigemonam potentiation (MPC@4), ec308; assay type: cell-based
KP1004 (KPC-2) [6] = test: Biapenem potentiation (MPC@1), KP1004; details: BLI with biapenem at 1 μg/mL
KP1009 (CTX-M-15) [7] = test: Tigemonam potentiation (MPC@4), KP1009; assay type: cell-based; details: BLI with tigemonam at 4 μg/mL
ec302 (TEM-10) [8] = test: Aztreonam potentiation (MPC@4), ec302; assay type: cell-based; details: BLI with aztreonam at 4 μg/mL
KP1005 (CTX-M-14) [9] = test: Aztreonam potentiation (MPC@4), KP1005; assay type: cell-based; details: BLI with aztreonam at 4 μg/mL
Pa AmpC = Pa AmpC (Pseudomonas aeruginosa, UniProt P24735); test: Ki, nitrocefin cleavage by purified enzyme, Pa AmpC; assay type: biochemical; details: nitrocefin reporter substrate; read-out: Ki (Pa AmpC, NCF)
Chain of Pa AmpC (P24735 27-397): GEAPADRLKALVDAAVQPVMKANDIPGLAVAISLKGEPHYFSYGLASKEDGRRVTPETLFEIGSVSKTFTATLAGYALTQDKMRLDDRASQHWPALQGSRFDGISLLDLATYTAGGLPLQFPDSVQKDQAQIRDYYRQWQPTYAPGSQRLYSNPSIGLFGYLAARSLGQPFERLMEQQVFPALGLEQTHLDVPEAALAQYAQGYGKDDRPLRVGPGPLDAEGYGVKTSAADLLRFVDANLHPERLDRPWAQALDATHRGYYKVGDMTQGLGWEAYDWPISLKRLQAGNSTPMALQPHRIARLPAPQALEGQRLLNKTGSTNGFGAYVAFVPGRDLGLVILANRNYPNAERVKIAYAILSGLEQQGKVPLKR
In short: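 Enzyme–inhibitor mixtures, spanning various inhibitor concentrations, were held 10 min at room temperature in reaction buffer prior to nitrocefin addition. Spectrophotometric monitoring of substrate cleavage at 490 nm then ran 10 min at 10-sec intervals to yield Ki.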

KP1004 (KPC-2) [10] = test: Aztreonam potentiation (MPC@4), KP1004; assay type: cell-based; details: BLI with aztreonam at 4 μg/mL
OXA-48 = OXA-48 (Klebsiella pneumoniae, UniProt Q6XEC0); test: Ki, nitrocefin cleavage by purified enzyme, OXA-48; assay type: biochemical; details: nitrocefin reporter substrate; read-out: Ki (OXA-48, NCF)
Chain of OXA-48 (Q6XEC0 23-265, looked up, species assumed): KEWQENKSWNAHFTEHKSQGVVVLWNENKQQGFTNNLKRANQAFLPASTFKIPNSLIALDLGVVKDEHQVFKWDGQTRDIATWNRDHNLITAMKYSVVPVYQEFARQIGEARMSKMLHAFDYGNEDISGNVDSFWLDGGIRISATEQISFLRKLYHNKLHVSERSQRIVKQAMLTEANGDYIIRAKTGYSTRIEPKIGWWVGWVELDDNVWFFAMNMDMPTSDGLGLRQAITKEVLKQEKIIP
In short: as §1

KP1010 (SHV-12) = test: Tigemonam potentiation (MPC@4), KP1010; assay type: cell-based
KPC-2 = KPC-2 (Klebsiella pneumoniae, UniProt Q9F663); test: Ki, nitrocefin cleavage by purified enzyme, KPC-2; assay type: biochemical; details: nitrocefin reporter substrate; read-out: Ki (KPC-2, NCF)
Chain of KPC-2 (Q9F663 25-293, looked up, species assumed): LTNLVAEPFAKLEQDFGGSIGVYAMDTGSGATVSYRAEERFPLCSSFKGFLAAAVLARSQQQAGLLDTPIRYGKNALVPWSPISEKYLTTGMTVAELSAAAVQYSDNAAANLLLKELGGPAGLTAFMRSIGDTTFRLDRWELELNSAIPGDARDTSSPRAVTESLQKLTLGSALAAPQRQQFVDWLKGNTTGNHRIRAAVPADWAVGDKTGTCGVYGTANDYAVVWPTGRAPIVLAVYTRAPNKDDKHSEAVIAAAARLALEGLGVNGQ
In short: as §1

ECL1002 [11] = test: Tigemonam potentiation (MPC@4), ECL1002; assay type: cell-based; details: BLI with tigemonam at 4 μg/mL
KP1009 (CTX-M-15) [12] = test: organism not typed; assay type: cell-based

Chain of SHV-12 (P0AD64 22-286 L31Q/G234S/E235K): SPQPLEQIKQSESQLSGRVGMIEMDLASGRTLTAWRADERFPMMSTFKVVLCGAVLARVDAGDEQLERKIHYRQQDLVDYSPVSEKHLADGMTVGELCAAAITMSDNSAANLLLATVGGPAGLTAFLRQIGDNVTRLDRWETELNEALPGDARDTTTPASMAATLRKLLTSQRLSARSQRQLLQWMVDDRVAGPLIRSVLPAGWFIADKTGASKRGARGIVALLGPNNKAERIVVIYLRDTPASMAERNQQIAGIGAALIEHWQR

SMILES | TIG MPC4 TEM-10 ec302 (ec302 (TEM-10) [1]) | Ki (SHV-12) | TIG MPC4 CTX-M-14 KP1005 (KP1005 (CTX-M-14) [2]) | Ki (P99) | AZT MPC4 ECL1002 (ECL1002 [3]) | TIG MPC4 CMY-6 EC1010 (EC1010 (CMY-6) [4]) | BPM MPC1 OXA-48 KP1086 (KP1086 (OXA-48)) | Ki (CTX-M-14) | AZT MPC4 CMY-6 EC1010 (EC1010 (CMY-6) [5]) | TIG MPC4 SHV-5 ec308 (ec308 (SHV-5)) | BPM MPC1 KP1004 KPC-2 (KP1004 (KPC-2) [6]) | TIG MPC4 CTX-M-15 KP1009 (KP1009 (CTX-M-15) [7]) | AZT MPC4 TEM-10 ec302 (ec302 (TEM-10) [8]) | Ki (Pa AmpC) | AZT MPC4 KPC-2 KP1004 (KP1004 (KPC-2) [10]) | Ki (OXA-48) | TIG MPC4 SHV-12 KP1010 (KP1010 (SHV-12)) | Ki (KPC-2) | TIG MPC4 ECL1002 (ECL1002 [11]) | AZT MPC4 CTX-M-15 KP1009 (KP1009 (CTX-M-15) [12]) | other results
Nc1nnc(C(=O)N[C@H]2Cc3ccc(F)c(C(=O)O)c3OB2O)s1 [Compound 8, (R)-3-(5-amino-1,3,4-thiadiazole-2-carboxamido)-7-fluoro-2-hydroxy-3,4-dihydro-2H-benzo[e][1,2]oxaborinine-8-carboxylic acid] | Y (key: X: MIC of less than 1 ng/mL; Y: MIC of 1 μg/mL to 10 μg/mL; Z: MIC of greater than 10 μg/mL) | < 1 nM | Y (MIC of 1 μg/mL to 10 μg/mL) | > 10 nM | Y (MIC of 1 μg/mL to 10 μg/mL) | X (MIC of less than 1 μg/mL) | Y (MIC of 1 μg/mL to 10 μg/mL) | < 1 nM | Y (key: X: MIC of less than 1 ng/mL; Y: MIC of 1 μg/mL to 10 μg/mL; Z: MIC of greater than 10 μg/mL) | X (key: X: MIC of less than 1 μg/mL; Y: MIC of 1 μg/mL to 10 μg/mL; Z: MIC of greater than 10 μg/mL) | X (MIC of less than 1 μg/mL) | Y (MIC of 1 μg/mL to 10 μg/mL) | Y (MIC of 1 μg/mL to 10 μg/mL) | > 10 nM | Y (MIC of 1 μg/mL to 10 μg/mL) | < 1 nM | X (key: X: MIC of less than 1 μg/mL; Y: MIC of 1 μg/mL to 10 μg/mL; Z: MIC of greater than 10 μg/mL) | > 10 nM | Y (MIC of 1 μg/mL to 10 μg/mL) | Y (key: X: MIC of less than 1 ng/mL; Y: MIC of 1 μg/mL to 10 μg/mL; Z: MIC of greater than 10 μg/mL) | AZT MPC4 CTX-M-14 KP1005 (KP1005 (CTX-M-14) [9]): Y (MIC of 1 μg/mL to 10 μg/mL)
CSCC(=O)N[C@H]1Cc2ccc(OCCO)c(C(=O)O)c2OB1O [Compound 20, (R)-2-hydroxy-7-(2-hydroxyethoxy)-3-(2-(methylthio)acetamido)-3,4-dihydro-2H-benzo[e][1,2]oxaborinine-8-carboxylic acid] | Z (key: X: MIC of less than 1 ng/mL; Y: MIC of 1 μg/mL to 10 μg/mL; Z: MIC of greater than 10 μg/mL) | < 1 nM | Y (MIC of 1 μg/mL to 10 μg/mL) | > 10 nM | Y (MIC of 1 μg/mL to 10 μg/mL) | X (MIC of less than 1 μg/mL) | Z (MIC of greater than 10 μg/mL) | < 1 nM | Y (key: X: MIC of less than 1 ng/mL; Y: MIC of 1 μg/mL to 10 μg/mL; Z: MIC of greater than 10 μg/mL) | X (key: X: MIC of less than 1 μg/mL; Y: MIC of 1 μg/mL to 10 μg/mL; Z: MIC of greater than 10 μg/mL) | X (MIC of less than 1 μg/mL) | X (MIC of less than 1 μg/mL) | Y (MIC of 1 μg/mL to 10 μg/mL) | > 10 nM | Y (MIC of 1 μg/mL to 10 μg/mL) | < 1 nM | X (key: X: MIC of less than 1 μg/mL; Y: MIC of 1 μg/mL to 10 μg/mL; Z: MIC of greater than 10 μg/mL) | > 10 nM | X (MIC of less than 1 μg/mL) | Y (key: X: MIC of less than 1 ng/mL; Y: MIC of 1 μg/mL to 10 μg/mL; Z: MIC of greater than 10 μg/mL) | –

Source: patent US9963467B2, “Boronic acid derivatives and therapeutic uses thereof” (Rempex Pharmaceuticals, Inc., priority 2014, dated 2018)
